Test results published in ChEMBL document CHEMBL3352178, “Antidepressant- and anxiolytic-like activity of 7-phenylpiperazinylalkyl-1,3-dimethyl-purine-2,6-dione derivatives with diversified 5-HT₁A receptor functional profile” (Bioorg Med Chem, 2015).
Calls of active or inactive are those of the source. No cut-off for these calls is given here.

Legend:
Mus musculus [1] = test: Inhibition of (+/-)-DOI-induced head twitch response in mouse dosed intraperitoneally 60 mins before (+/-)-DOI injection; type: functional
Mus musculus [2] = test: Anxiolytic-like activity in mouse assessed as increase in number of punished crossings at 20 mg/kg, ip dosed 60 mins before test by four plate test; type: functional; conditions: route intraperitoneal
Mus musculus [3] = test: Effect on spontaneous locomotor activity in mouse at 20 mg/kg, ip; type: ADME, organism-based; parameters: dose 20 mg/kg, route intraperitoneal; conditions: in vivo
Mus musculus [4] = test: Anxiolytic-like activity in mouse assessed as increase in number of punished crossings at 20 mg/kg, ip dosed 60 mins before test in presence of 0.3 mg/kg, sc 5HT1A receptor antagonist WAY 100635 by four plate test; type: functional, organism-based
Mus musculus [5] = test: Antidepressant-like activity in mouse assessed as reduction in immobility time at 5 mg/kg, ip dosed 60 mins before test by forced swim test; type: functional; parameters: scale not given: the % may be the effect or the level left; conditions: route intraperitoneal
Mus musculus [6] = test: Antidepressant-like activity in mouse assessed as reduction in immobility time at 10 mg/kg, ip dosed 60 mins before test by forced swim test; type: functional; parameters: scale not given: the % may be the effect or the level left; conditions: route intraperitoneal
Mus musculus [7] = test: Effect on spontaneous locomotor activity in ip dosed mouse during 2 to 6 mins; type: ADME, organism-based; conditions: in vivo
Mus musculus [8] = test: Antidepressant-like activity in mouse assessed as reduction in immobility time at 5 mg/kg, ip dosed 60 mins before test in presence of 0.3 mg/kg, sc 5HT1A receptor antagonist WAY 100635 by forced swim test; type: functional, organism-based
[9] = target: T1, 5-hydroxytryptamine receptor 1A (Rattus norvegicus, UniProt P19327); test: Displacement of [3H]-8-OH-DPAT from 5-HT1AR in rat hippocampus; type: tissue-based
T1 sequence (P19327 whole entry): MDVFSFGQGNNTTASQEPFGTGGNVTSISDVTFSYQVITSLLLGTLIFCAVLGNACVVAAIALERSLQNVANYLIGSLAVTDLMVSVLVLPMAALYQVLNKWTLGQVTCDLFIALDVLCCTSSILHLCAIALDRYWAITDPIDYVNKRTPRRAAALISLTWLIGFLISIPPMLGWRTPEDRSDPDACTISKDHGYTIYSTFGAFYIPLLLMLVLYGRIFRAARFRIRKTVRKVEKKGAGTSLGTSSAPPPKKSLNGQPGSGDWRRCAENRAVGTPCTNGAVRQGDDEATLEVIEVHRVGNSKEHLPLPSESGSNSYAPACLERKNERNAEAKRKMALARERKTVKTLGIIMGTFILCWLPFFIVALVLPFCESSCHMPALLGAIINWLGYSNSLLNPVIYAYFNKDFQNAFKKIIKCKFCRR

[10] = target: 5-hydroxytryptamine receptor 2A (Rattus norvegicus, UniProt P14842); test: Displacement of [3H]-ketanserin from 5-HT2AR in rat cortex
[11] = target: 5-hydroxytryptamine receptor 6 (Homo sapiens, UniProt P50406); test: Displacement of [3H]LSD from human cloned 5-HT6R expressed in HEK293 cells; type: cell-based
[12] = target: 5-hydroxytryptamine receptor 7 (Homo sapiens, UniProt P34969); test: Displacement of [3H]]-5-CT from human cloned 5-HT7R expressed in HEK293 cells; type: cell-based
D(2) dopamine receptor = D(2) dopamine receptor (Rattus norvegicus, UniProt P61169); test: Displacement of [3H]-spiperone from dopamine D2 receptor in rat striatum
Mus musculus [13] = test: Induction of hypothermia in mouse assessed as change in body temperature at 2.5 mg/kg, ip administered 30 mins before test and measured 30 mins post dose; type: functional, organism-based; parameters: dose 2.5 mg/kg
Mus musculus [14] = test: Induction of hypothermia in mouse assessed as change in body temperature at 5 mg/kg, ip administered 30 mins before test and measured 30 mins post dose; type: functional, organism-based; parameters: dose 5 mg/kg
Mus musculus [15] = test: Induction of hypothermia in mouse assessed as change in body temperature at 10 mg/kg, ip administered 30 mins before test and measured 30 mins post dose; type: functional, organism-based; parameters: dose 10 mg/kg
Mus musculus [16] = test: Induction of hypothermia in mouse assessed as change in body temperature at 2.5 mg/kg, ip administered 30 mins before test and measured 60 mins post dose; type: functional, organism-based; parameters: dose 2.5 mg/kg
Mus musculus [17] = test: Induction of hypothermia in mouse assessed as change in body temperature at 5 mg/kg, ip administered 30 mins before test and measured 60 mins post dose; type: functional, organism-based; parameters: dose 5 mg/kg
Mus musculus [18] = test: Induction of hypothermia in mouse assessed as change in body temperature at 10 mg/kg, ip administered 30 mins before test and measured 60 mins post dose; type: functional, organism-based; parameters: dose 10 mg/kg
Mus musculus [19] = test: Induction of hypothermia in mouse assessed as change in body temperature at 2.5 mg/kg, ip administered 30 mins before test and measured 90 mins post dose; type: functional, organism-based; parameters: dose 2.5 mg/kg
Mus musculus [20] = test: Induction of hypothermia in mouse assessed as change in body temperature at 5 mg/kg, ip administered 30 mins before test and measured 90 mins post dose; type: functional, organism-based; parameters: dose 5 mg/kg
Mus musculus [21] = test: Induction of hypothermia in mouse assessed as change in body temperature at 10 mg/kg, ip administered 30 mins before test and measured 90 mins post dose; type: functional, organism-based; parameters: dose 10 mg/kg
Mus musculus [22] = test: Induction of hypothermia in mouse assessed as change in body temperature at 2.5 mg/kg, ip administered 30 mins before test and measured 120 mins post dose; type: functional, organism-based; parameters: dose 2.5 mg/kg
Mus musculus [23] = test: Induction of hypothermia in mouse assessed as change in body temperature at 5 mg/kg, ip administered 30 mins before test and measured 120 mins post dose; type: functional, organism-based; parameters: dose 5 mg/kg
Mus musculus [24] = test: Induction of hypothermia in mouse assessed as change in body temperature at 10 mg/kg, ip administered 30 mins before test and measured 120 mins post dose; type: functional, organism-based; parameters: dose 10 mg/kg
Mus musculus [25] = test: Induction of hypothermia in mouse assessed as change in body temperature at 5 mg/kg, ip administered 30 mins before test and measured 30 mins post dose in presence of 0.3 mg/kg, sc 5HT1A receptor antagonist WAY 100635; type: functional, organism-based
Mus musculus [26] = test: Induction of hypothermia in mouse assessed as change in body temperature at 5 mg/kg, ip administered 30 mins before test and measured 60 mins post dose in presence of 0.3 mg/kg, sc 5HT1A receptor antagonist WAY 100635; type: functional, organism-based
Mus musculus [27] = test: Induction of hypothermia in mouse assessed as change in body temperature at 2.5 mg/kg, ip administered 30 mins before test and measured 30 mins post dose in presence of 0.3 mg/kg, sc 5HT1A receptor antagonist WAY 100635; type: functional, organism-based
Mus musculus [28] = test: Induction of hypothermia in mouse assessed as change in body temperature at 2.5 mg/kg, ip administered 30 mins before test and measured 60 mins post dose in presence of 0.3 mg/kg, sc 5HT1A receptor antagonist WAY 100635; type: functional, organism-based
Rattus norvegicus [29] = test: Induction of lower lip retraction in rat assessed as lower lip retraction scores at 0.5 mg/kg, ip dosed 15 mins before test; type: functional; conditions: route intraperitoneal
Rattus norvegicus [30] = test: Induction of lower lip retraction in rat assessed as lower lip retraction scores at 1 mg/kg, ip dosed 15 mins before test; type: functional; conditions: route intraperitoneal
Rattus norvegicus [31] = test: Induction of lower lip retraction in rat assessed as lower lip retraction scores at 1 mg/kg, ip dosed 45 mins after 0.3 mg/kg, sc 5HT1A receptor antagonist WAY 100635; type: functional
Mus musculus [32] = test: Inhibition of (+/-)-DOI-induced head twitch response in mouse assessed as head twitches per 20 mins at 2.5 mg/kg, ip dosed 60 mins before (+/-)-DOI injection (reference value: 21.6 +/- 3.4/20 mins); type: functional; conditions: route intraperitoneal
Mus musculus [33] = test: Inhibition of (+/-)-DOI-induced head twitch response in mouse assessed as head twitches per 20 mins at 5 mg/kg, ip dosed 60 mins before (+/-)-DOI injection (reference value: 21.6 +/- 3.4/20 mins); type: functional; conditions: route intraperitoneal
Mus musculus [34] = test: Inhibition of (+/-)-DOI-induced head twitch response in mouse assessed as head twitches per 20 mins at 10 mg/kg, ip dosed 60 mins before (+/-)-DOI injection (reference value: 21.6 +/- 3.4/20 mins); type: functional; conditions: route intraperitoneal
Mus musculus [35] = test: Inhibition of (+/-)-DOI-induced head twitch response in mouse assessed as head twitches per 20 mins at 20 mg/kg, ip dosed 60 mins before (+/-)-DOI injection (reference value: 21.6 +/- 3.4/20 mins); type: functional; conditions: route intraperitoneal

Chain of 5-hydroxytryptamine receptor 2A (P14842 whole entry): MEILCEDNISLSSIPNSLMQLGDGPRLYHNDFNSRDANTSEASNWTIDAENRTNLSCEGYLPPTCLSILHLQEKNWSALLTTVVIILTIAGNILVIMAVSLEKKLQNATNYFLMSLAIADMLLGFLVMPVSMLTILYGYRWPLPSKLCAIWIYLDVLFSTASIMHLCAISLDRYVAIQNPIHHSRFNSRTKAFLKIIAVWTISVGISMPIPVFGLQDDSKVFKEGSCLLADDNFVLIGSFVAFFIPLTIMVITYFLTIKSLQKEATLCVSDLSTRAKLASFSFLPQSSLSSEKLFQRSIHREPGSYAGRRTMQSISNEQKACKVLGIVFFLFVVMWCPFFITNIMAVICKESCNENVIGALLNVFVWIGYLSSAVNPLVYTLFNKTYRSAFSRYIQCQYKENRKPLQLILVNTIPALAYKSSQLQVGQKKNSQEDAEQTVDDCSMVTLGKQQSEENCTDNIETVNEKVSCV
Chain of 5-hydroxytryptamine receptor 7 (P34969 whole entry): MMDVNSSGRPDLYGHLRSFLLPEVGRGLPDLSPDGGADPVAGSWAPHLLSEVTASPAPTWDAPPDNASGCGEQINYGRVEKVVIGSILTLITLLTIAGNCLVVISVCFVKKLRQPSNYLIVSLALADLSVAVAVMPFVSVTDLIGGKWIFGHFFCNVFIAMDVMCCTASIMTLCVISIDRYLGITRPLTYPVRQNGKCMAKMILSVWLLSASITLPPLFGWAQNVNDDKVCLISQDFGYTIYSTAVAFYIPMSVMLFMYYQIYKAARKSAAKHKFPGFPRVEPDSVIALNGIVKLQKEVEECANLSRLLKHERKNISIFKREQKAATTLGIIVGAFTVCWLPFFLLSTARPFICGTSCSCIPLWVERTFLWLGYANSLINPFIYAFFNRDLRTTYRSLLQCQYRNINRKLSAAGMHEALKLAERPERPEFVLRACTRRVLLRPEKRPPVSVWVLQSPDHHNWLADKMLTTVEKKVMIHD
Chain of 5-hydroxytryptamine receptor 6 (P50406 whole entry): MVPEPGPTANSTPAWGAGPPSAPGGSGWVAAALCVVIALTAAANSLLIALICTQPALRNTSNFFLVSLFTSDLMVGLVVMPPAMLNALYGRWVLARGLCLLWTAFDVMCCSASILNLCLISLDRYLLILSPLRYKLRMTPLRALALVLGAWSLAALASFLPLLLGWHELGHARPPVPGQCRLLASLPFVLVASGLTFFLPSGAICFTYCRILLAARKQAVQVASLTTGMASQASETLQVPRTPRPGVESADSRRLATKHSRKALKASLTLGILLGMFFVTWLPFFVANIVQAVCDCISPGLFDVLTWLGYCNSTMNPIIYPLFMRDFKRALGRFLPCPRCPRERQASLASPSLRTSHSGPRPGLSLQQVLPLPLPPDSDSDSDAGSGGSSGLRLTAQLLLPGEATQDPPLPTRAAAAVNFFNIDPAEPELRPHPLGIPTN
Chain of D(2) dopamine receptor (P61169 whole entry): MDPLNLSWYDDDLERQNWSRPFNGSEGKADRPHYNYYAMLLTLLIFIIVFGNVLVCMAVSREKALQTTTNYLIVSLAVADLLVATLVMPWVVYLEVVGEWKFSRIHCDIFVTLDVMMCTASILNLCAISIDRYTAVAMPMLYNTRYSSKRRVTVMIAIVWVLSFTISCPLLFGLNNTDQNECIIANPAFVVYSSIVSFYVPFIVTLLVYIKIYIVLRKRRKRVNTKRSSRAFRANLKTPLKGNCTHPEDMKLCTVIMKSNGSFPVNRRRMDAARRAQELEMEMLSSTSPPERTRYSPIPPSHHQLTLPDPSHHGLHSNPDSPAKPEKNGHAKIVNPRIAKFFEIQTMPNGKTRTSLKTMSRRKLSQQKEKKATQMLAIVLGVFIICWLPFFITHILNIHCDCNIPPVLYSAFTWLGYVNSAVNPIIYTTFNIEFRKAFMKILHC

In the case of Cl.Cn1c(=O)c2c(ncn2CCCCN2CCN(c3cccc(Cl)c3)CC2)n(C)c1=O, the inhibition (Mus musculus [1]) is reported as “Dose-dependent effect”, the ED50 (Mus musculus [1]; ip, read-out: ID50 (the source's name)) is reported as 5.09 mg/kg and the Activity (Mus musculus [2]) is reported as 57%. The Activity (Mus musculus [3]) was “Non-toxic”, the Activity (Mus musculus [4]) was “inactive” and the Activity (Mus musculus [5]) was 37%. The Activity (Mus musculus [6]) was 30%, the Activity (Mus musculus [7]) was “Non-toxic” and the Activity (Mus musculus [8]) was “inactive”. It also gave a Ki [9] of 0.001 µM, a Ki [10] of 0.102 µM and a Ki [11] of 5.15 µM. It also gave a Ki [12] of 0.479 µM, a Ki (D(2) dopamine receptor) of 0.195 µM and a deltaT (Mus musculus [13]) of -1.8 °C. The deltaT (Mus musculus [14]) was -2.1 °C, the deltaT (Mus musculus [15]) was -2 °C and the deltaT (Mus musculus [16]) was -0.8 °C. The deltaT (Mus musculus [17]) was -1.1 °C, the deltaT (Mus musculus [18]) was -1.7 °C and the deltaT (Mus musculus [19]) was -0.1 °C. The deltaT (Mus musculus [20]) was -0.6 °C, the deltaT (Mus musculus [21]) was -1.3 °C and the deltaT (Mus musculus [22]) was 0 °C. It also gave a deltaT (Mus musculus [23]) of -0.2 °C, a deltaT (Mus musculus [24]) of 0.8 °C and a deltaT (Mus musculus [25]) of -1.5 °C. For the same compound, the deltaT (Mus musculus [26]) was -0.6 °C, the deltaT (Mus musculus [27]) was -0.8 °C and the deltaT (Mus musculus [28]) was -0.2 °C. The Activity (Rattus norvegicus [29]) was 0.3, the Activity (Rattus norvegicus [30]) was 1.5 and the Activity (Rattus norvegicus [31]) was 0.1. The Activity (Mus musculus [32]) was 11, the Activity (Mus musculus [33]) was 7.7 and the Activity (Mus musculus [34]) was 3.8. The Activity (Mus musculus [35]) was 3.2.
